Test results as given in patent US20250295654A1, “METHODS OF TREATING METABOLIC DISEASES WITH FUSED BICYCLIC PYRAZOLES” (Belite Bio, Inc, priority 2019, published 2025).
“And” between values parts separate entries of the source, which are not always exact repeats. Equal entries are not always repeated. Marks after values point to notes of the source that are not given here.

Tests used:
Type in all cases: in vivo
[1] = Compound 1 single dose rat PK study; settings: male Sprague Dawley rats, single iv dose 2 mg/kg, first plasma collection time listed as Tmax
Method: A pharmacokinetic study of Compound 1 following a single intravenous or oral dose administration to male Sprague Dawley rats was conducted, the results of which are found in Table 3 and FIGS. 9-14.

[2] = Compound 1 single dose mouse PK study; settings: male CD-1 mice, single iv dose 2 mg/kg; first plasma collection time
Method: A pharmacokinetic study of Compound 1 following a single intravenous or oral dose administration to male CD-1 mice was conducted, the results of which are found in Table 4 and FIGS. 15-20.

[3] = Compound 2 single dose rat PK study; settings: male Sprague Dawley rats, single iv dose 2 mg/kg; for Tmax: first plasma collection time or observed time of highest plasma concentration
Method: A pharmacokinetic study of Compound 2 following a single intravenous or oral dose administration to male Sprague Dawley rats was conducted, the results of which are found in Table 5 and FIGS. 21-24.

SMILES	Tmax ([1]; Mean) [min]	Tmax ([1]; individual rat) [min]	Tmax [2]	Tmax ([3]; Mean) [min]	AUCinf ([3]; individual rat, 2 mg/kg)	Cl ([3]; individual rat, 2 mg/kg)	Tmax ([3]; individual rat, 2 mg/kg) [min]
CC(=O)N1CCc2c(C(=O)N3CCC(c4ccc(F)c(F)c4C(F)(F)F)CC3)n[nH]c2C1 [Compound 1, 1-(3-(4-(3,4-difluoro-2-(trifluoromethyl)phenyl)piperidine-1-carbonyl)-1,4,5,7-tetrahydro-6H-pyrazolo[3,4-c]pyridin-6-yl)ethan-1-one]	4.98	4.98	0.083^b hr	–	–	–	–
CC(=O)N1Cc2[nH]nc(C(=O)N3CCC(c4ccc(F)c(F)c4C(F)(F)F)CC3)c2C1 [Compound 2, 1-(3-(4-(3,4-difluoro-2-(trifluoromethyl)phenyl)piperidine-1-carbonyl)-4,6-dihydropyrrolo[3,4-c]pyrazol-5(1H)-yl)ethan-1-one]	–	–	–	13.3	4027 ng·h/mL and 5052 ng·h/mL	4.13 mL/min/kg and 3.3 mL/min/kg	4.98
